Data as given in PubChem BioAssay AID248 (DTP/NCI, 2004).
“And” between values parts separate entries of the source, which are not always exact repeats. Equal values may be shown once. Toxic doses and inconclusive results are not listed.

System: L1210 leukemia ip in BDF1 mice, survival T/C
Test: NCI In Vivo Anticancer Drug Screen. Data for tumor model L1210 Leukemia (intraperitoneal) in B6D2F1 (BDF1) mice
Conditions: endpoint: mean survival time, higher = longer survival
Summary of the method: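 In this screen, tumor-bearing mice given compound are compared to those given vehicle, and their survival values are reported as a treated-to-control quotient.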

[1] = dose: 100.0 mg/kg/injection, schedule: Q01DX001 (ip), vehicle: carboxymethylcellulose (CMC)
[2] = dose: 200.0 mg/kg/injection, schedule: Q01DX001 (ip), vehicle: carboxymethylcellulose (CMC)
[3] = dose: 400.0 mg/kg/injection, schedule: Q01DX001 (ip), vehicle: carboxymethylcellulose (CMC)

In the case of `CC1=NN(c2ccccc2)C(=O)C1`, the T/C (dose: 50.0 mg/kg/injection, schedule: Q01DX001 (ip), vehicle: saline) was 94 % of control, the T/C (dose: 100.0 mg/kg/injection, schedule: Q01DX001 (ip), vehicle: saline with Tween-80) was 104 % of control and the T/C (dose: 100.0 mg/kg/injection, schedule: Q01DX001 (ip), vehicle: saline) was 94 % of control. The T/C (dose: 200.0 mg/kg/injection, schedule: Q01DX001 (ip), vehicle: saline with Tween-80) was 101 % of control, the T/C (dose: 200.0 mg/kg/injection, schedule: Q01DX001 (ip), vehicle: saline) was 90 % of control and the T/C (dose: 400.0 mg/kg/injection, schedule: Q01DX001 (ip), vehicle: saline with Tween-80) was 101 % of control. For the same compound, the T/C (dose: 400.0 mg/kg/injection, schedule: Q01DX001 (ip), vehicle: saline) was 102 % of control.

`CCCCC=C(C)C` was tested, and the T/C (dose: 50.0 mg/kg/injection, schedule: Q01DX001 (ip), vehicle: carboxymethylcellulose (CMC)) was 106 % of control, the T/C [1] was 93 % of control and the T/C [2] was 104 % of control. The T/C [3] was 104 % of control.

For `O=[N+]([O-])c1ccc(N/N=C2\CCC3CC23)c([N+](=O)[O-])c1` (stereo not given), the T/C (dose: 25.0 mg/kg/injection, schedule: Q04DX002 (ip), vehicle: Klucel (hydroxypropylcellulose) (HPC)) was 105 % of control, the T/C (dose: 50.0 mg/kg/injection, schedule: Q04DX002 (ip), vehicle: Klucel (hydroxypropylcellulose) (HPC)) was 102 % of control and the T/C (dose: 100.0 mg/kg/injection, schedule: Q04DX002 (ip), vehicle: Klucel (hydroxypropylcellulose) (HPC)) was 97 % of control.

For `CN(C)CCNc1ccc([N+](=O)[O-])c2sc3ccccc3c(=O)c12`, the T/C (dose: 5.3 mg/kg/injection, schedule: Q01DX Z (ip), vehicle: methylcellulose (MC)) was 94 % of control and 98 % of control, the T/C (dose: 8.0 mg/kg/injection, schedule: Q01DX Z (ip), vehicle: carboxymethylcellulose (CMC)) was 102 % of control and the T/C (dose: 8.0 mg/kg/injection, schedule: Q01DX Z (ip), vehicle: methylcellulose (MC)) was 98 % of control and 106 % of control. For the same compound, the T/C (dose: 12.0 mg/kg/injection, schedule: Q01DX Z (ip), vehicle: carboxymethylcellulose (CMC)) was 118 % of control, the T/C (dose: 26.0 mg/kg/injection, schedule: Q01DX Z (ip), vehicle: carboxymethylcellulose (CMC)) was 152 % of control and the T/C (dose: 27.0 mg/kg/injection, schedule: Q01DX Z (ip), vehicle: carboxymethylcellulose (CMC)) was 156 % of control. For the same compound, the T/C (dose: 27.0 mg/kg/injection, schedule: Q01DX Z (ip), vehicle: methylcellulose (MC)) was 98 % of control and 156 % of control and 216 % of control, the T/C (dose: 40.0 mg/kg/injection, schedule: Q01DX Z (ip), vehicle: carboxymethylcellulose (CMC)) was 172 % of control and the T/C (dose: 40.0 mg/kg/injection, schedule: Q01DX Z (ip), vehicle: methylcellulose (MC)) was 111 % of control.

`CC(CCOS(C)(=O)=O)OS(C)(=O)=O` (stereo not given) was tested, and the T/C (dose: 100.0 mg/kg/injection, schedule: Q04DX003 (ip), vehicle: saline with Tween-80) was 112 % of control, the T/C (dose: 200.0 mg/kg/injection, schedule: Q04DX003 (ip), vehicle: saline with Tween-80) was 107 % of control and the T/C (dose: 400.0 mg/kg/injection, schedule: Q04DX003 (ip), vehicle: saline with Tween-80) was 88 % of control.

With `COc1ccc(N)cc1` the T/C (dose: 100.0 mg/kg/injection, schedule: Q01DX009 (ip), vehicle: alcohol) was 121 % of control and the T/C (dose: 200.0 mg/kg/injection, schedule: Q01DX009 (ip), vehicle: alcohol) was 88 % of control.

For `Clc1ccc(-c2cc(=[N+]3CCOCC3)ss2)cc1`, the T/C (dose: 25.0 mg/kg/injection, schedule: Q01DX009 (ip), vehicle: water) was 101 % of control, the T/C (dose: 50.0 mg/kg/injection, schedule: Q01DX009 (ip), vehicle: water) was 93 % of control and the T/C (dose: 100.0 mg/kg/injection, schedule: Q01DX009 (ip), vehicle: water) was 96 % of control. The T/C (dose: 200.0 mg/kg/injection, schedule: Q01DX009 (ip), vehicle: water) was 88 % of control.

For `CCN(CC)CCNc1nc(N)c(C#N)c(C#N)c1C#N`, the T/C [1] was 96 % of control, the T/C [2] was 94 % of control and the T/C [3] was 96 % of control.

For `O=C1CCCCC1C(O)(C(=O)c1ccccc1)c1ccccc1` (stereo not given) (tested in a mixture with another compound), the T/C (dose: 50.0 mg/kg/injection, schedule: Q01DX009 (ip), vehicle: saline with Tween-80) was 97 % of control, the T/C (dose: 100.0 mg/kg/injection, schedule: Q01DX009 (ip), vehicle: saline with Tween-80) was 87 % of control and the T/C (dose: 200.0 mg/kg/injection, schedule: Q01DX009 (ip), vehicle: saline with Tween-80) was 91 % of control.

With `CSc1ccc(/C=N/NC(N)=S)c(SC)n1` the T/C (dose: 100.0 mg/kg/injection, schedule: Q04DX003 (ip), vehicle: Klucel (hydroxypropylcellulose) (HPC)) was 98 % of control, the T/C (dose: 200.0 mg/kg/injection, schedule: Q04DX003 (ip), vehicle: Klucel (hydroxypropylcellulose) (HPC)) was 98 % of control and the T/C (dose: 400.0 mg/kg/injection, schedule: Q04DX003 (ip), vehicle: Klucel (hydroxypropylcellulose) (HPC)) was 96 % of control.

In the case of `CCC1CC2CCC(c3cc4c(cc3OC)N(C)C3C(O)(C(=O)OC)C(OC(C)=O)C5(CC)C=CCN6CCC43C65)c3[nH]c4ccccc4c3CCN(C1)C2` (stereo not given), the T/C (dose: 0.8 mg/kg/injection, schedule: Q01DX001 (ip), vehicle: saline) was 97 % of control, the T/C (dose: 1.6 mg/kg/injection, schedule: Q01DX001 (ip), vehicle: saline) was 97 % of control and the T/C (dose: 3.2 mg/kg/injection, schedule: Q01DX001 (ip), vehicle: saline) was 97 % of control. The T/C (dose: 6.4 mg/kg/injection, schedule: Q01DX001 (ip), vehicle: saline) was 100 % of control.

With `Cc1ccc(NC(=O)N(C)CCC#N)cc1` the T/C (dose: 100.0 mg/kg/injection, schedule: Q04DX002 (ip), vehicle: saline with Tween-80) was 97 % of control, the T/C (dose: 200.0 mg/kg/injection, schedule: Q04DX002 (ip), vehicle: saline with Tween-80) was 94 % of control and the T/C (dose: 400.0 mg/kg/injection, schedule: Q04DX002 (ip), vehicle: saline with Tween-80) was 87 % of control.

`COC(=O)c1ccc(-c2c3ccc(=O)cc-3oc3cc(O)ccc23)c(C(=O)OC)c1` was tested, and the T/C (dose: 50.0 mg/kg/injection, schedule: Q04DX003 (ip), vehicle: gum acacia) was 102 % of control, the T/C (dose: 100.0 mg/kg/injection, schedule: Q04DX003 (ip), vehicle: gum acacia) was 98 % of control and the T/C (dose: 200.0 mg/kg/injection, schedule: Q04DX003 (ip), vehicle: gum acacia) was 102 % of control. For the same compound, the T/C (dose: 400.0 mg/kg/injection, schedule: Q04DX003 (ip), vehicle: gum acacia) was 95 % of control.

With `COc1ccc(/C=N\N/C(N)=N\N=C\c2ccc(OC)cc2)cc1` the T/C (dose: 15.0 mg/kg/injection, schedule: Q01DX Z (ip), vehicle: carboxymethylcellulose (CMC)) was 89 % of control, the T/C (dose: 30.0 mg/kg/injection, schedule: Q01DX Z (ip), vehicle: carboxymethylcellulose (CMC)) was 97 % of control and the T/C (dose: 60.0 mg/kg/injection, schedule: Q01DX Z (ip), vehicle: carboxymethylcellulose (CMC)) was 93 % of control and 101 % of control. For the same compound, the T/C (dose: 120.0 mg/kg/injection, schedule: Q01DX Z (ip), vehicle: carboxymethylcellulose (CMC)) was 92 % of control, the T/C (dose: 240.0 mg/kg/injection, schedule: Q01DX Z (ip), vehicle: carboxymethylcellulose (CMC)) was 100 % of control and the T/C (dose: 240.0 mg/kg/injection, schedule: Q01DX Z (oral), vehicle: carboxymethylcellulose (CMC)) was 107 % of control. The T/C (dose: 480.0 mg/kg/injection, schedule: Q01DX Z (ip), vehicle: carboxymethylcellulose (CMC)) was 90 % of control, the T/C (dose: 480.0 mg/kg/injection, schedule: Q01DX Z (oral), vehicle: carboxymethylcellulose (CMC)) was 105 % of control and the T/C (dose: 960.0 mg/kg/injection, schedule: Q01DX Z (oral), vehicle: carboxymethylcellulose (CMC)) was 104 % of control. The T/C (dose: 1920.0 mg/kg/injection, schedule: Q01DX Z (oral), vehicle: carboxymethylcellulose (CMC)) was 102 % of control.

In the case of `O=C(N1C(c2ccc(Cl)cc2)CC2(CC1c1ccc(Cl)cc1)SSC1(CC(c3ccc(Cl)cc3)N(C(=O)C(F)(F)F)C(c3ccc(Cl)cc3)C1)S2)C(F)(F)F` (stereo not given), the T/C (dose: 100.0 mg/kg/injection, schedule: Q01DX009 (ip), vehicle: saline) was 102 % of control, the T/C (dose: 100.0 mg/kg/injection, schedule: Q04DX003 (ip), vehicle: saline) was 95 % of control and the T/C (dose: 200.0 mg/kg/injection, schedule: Q01DX009 (ip), vehicle: saline) was 98 % of control. For the same compound, the T/C (dose: 200.0 mg/kg/injection, schedule: Q04DX003 (ip), vehicle: saline) was 97 % of control, the T/C (dose: 400.0 mg/kg/injection, schedule: Q01DX009 (ip), vehicle: saline) was 105 % of control and the T/C (dose: 400.0 mg/kg/injection, schedule: Q04DX003 (ip), vehicle: saline) was 95 % of control.

`CCOP(=O)(OCC)N1C(=O)CCC1=O` was tested, and the T/C (dose: 6.25 mg/kg/injection, schedule: Q04DX003 (ip), vehicle: saline) was 105 % of control, the T/C (dose: 12.5 mg/kg/injection, schedule: Q04DX003 (ip), vehicle: saline) was 100 % of control and the T/C (dose: 13.75 mg/kg/injection, schedule: Q01DX009 (ip), vehicle: saline) was 88 % of control. For the same compound, the T/C (dose: 25.0 mg/kg/injection, schedule: Q04DX003 (ip), vehicle: saline) was 103 % of control, the T/C (dose: 27.5 mg/kg/injection, schedule: Q01DX009 (ip), vehicle: saline) was 94 % of control and the T/C (dose: 35.0 mg/kg/injection, schedule: Q04DX003 (ip), vehicle: saline) was 102 % of control. The T/C (dose: 55.0 mg/kg/injection, schedule: Q04DX003 (ip), vehicle: saline) was 101 % of control.
